The source of these data is US6124328A, “Methods and compositions for stimulating neurite growth” (Vertex Pharmaceuticals Incorporated, priority 1997, dated 2000).

Assay [1] relates to PC12 rat pheochromocytoma cells. The note with it: Lyons et al., cited from earlier work.
Assay [2] relates to dorsal root ganglia (sensory ganglia). Particulars: Lyons et al., cited from earlier work.
For another assay, the system named is ryanodine receptor (RyR). Particulars: cited from earlier work.
In assay [3] the test system is inositol 1,4,5-triphosphate receptor (IP3 R). Particulars: cited from earlier work.
The target of another assay is FKBP12 (Homo sapiens, UniProt P62942). The assay is described as follows: FKBP12 Binding Assay: inhibition of FKBP rotomase activity (cis-N-succinyl-Ala-Ala-Pro-Phe-p-nitroanilide / chymotrypsin), apparent Ki. Format: biochemical. Particulars: Table 2, formula II', compound 0.1 nM-10 μM. An excerpt: Preferably, the assay measures inhibition of FKBP12 rotomase activity. Such an assay has also been described by M. W. Harding et al., supra and by J. J. Siekierka et al., supra. In this assay the isomerization of an artificial substrate--N-succinyl-Ala-Ala-Pro-Phe-p-nitroanilide--is followed spectrophotometrically. The assay includes the cis form of the substrate, FKBP12, the inhibitor and chymotrypsin. Chymotrypsin is able to cleave p-nitroanilide from the trans form of the substrate, but not the cis form. Release of p-nitroanilide is measured.
In this assay various quantities of FKBP12 binding compound (0.1 nM-10 μM) were added to cis-N-succinyl-Ala-Ala-Pro-Phe-p-nitroanilide in the presence of FKBP12 and chymotrypsin. FKBP12 converts the cis form of the substrate to the trans form. This allows chymotrypsin to cleave p-nitroanilide from the substrate. Release of p-nitroanilide was measured spectrophotometrically.

What is called pKi is the Ki on a negative log10 scale, so that one unit is a factor of ten.

pKi: −log10 of the molar value. A value given as a limit tells only on which side of the number the result lay.

Chain of FKBP12 (P62942 whole entry): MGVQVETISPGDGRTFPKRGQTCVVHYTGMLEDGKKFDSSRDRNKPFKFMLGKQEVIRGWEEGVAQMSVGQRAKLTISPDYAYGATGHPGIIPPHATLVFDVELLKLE

With `C=CC[C@@H]1/C=C(\C)C[C@H](C)C[C@H](OC)[C@H]2O[C@@](O)(C(=O)C(=O)N3CCCC[C@H]3C(=O)O[C@H](/C(C)=C/[C@@H]3CC[C@@H](O)[C@H](OC)C3)[C@H](C)[C@@H](O)CC1=O)[C@H](C)C[C@@H]2OC` [FK-506], the “neurite outgrowth (synergy with NGF)” value in assay [1] (with NGF, rat pheochromocytoma cell line) is on record as “acts synergistically with nerve growth factor (NGF) in stimulating neurite outgrowth”. Moreover, the “neurotrophic effects in sensory ganglia” value in assay [2] is listed as “demonstrated similar neurotrophic effects”. Besides, the “dissociating FKBP12 from the receptor” value (with ryanodine receptor (RyR); in assay [3]) was “capable of dissociating FKBP12 from the receptor” each time.
Take `COc1cc(C(=O)C(=O)N2CCCC[C@H]2C(=O)OC(C)c2ccc(OCc3ccncc3)c(OCc3ccncc3)c2OC(C)C)cc(OC)c1OC` (stereo partly drawn) [compound 85]: the pKi at FKBP12 is 8.46.
As for `COc1cc(C(=O)C(=O)N2CCC[C@H]2C(=O)OC(C)c2cc(OCc3ccncc3)c(OCc3ccncc3)c(OCc3ccncc3)c2)cc(OC)c1OC` (stereo partly drawn) [compound 86], the pKi at FKBP12 is 6.55.
Consider `COc1cc(C(=O)C(=O)N2CCC[C@H]2C(=O)OC(C)c2cc(OCc3ccncc3)c(OCc3ccncc3)c(OCc3ccncc3)c2)cc(OC)c1OC` (stereo partly drawn) [compound 87], for which the pKi on FKBP12 is 6.44.
On to `COc1cc(C(=O)C(=O)N2CCCC[C@H]2C(=O)OC(C)c2cc(OCc3ccccc3)c(OCc3ccccc3)c(OCc3ccccc3)c2)cc(OC)c1OC` (stereo partly drawn) [compound 90], for which the negative-log Ki (pKi) on FKBP12 was 5.59.
For `COc1cc(C(=O)C(=O)N2CCCC[C@H]2C(=O)OC(CCCc2ccccc2)c2cccc(C(=O)c3cccnc3)c2)cc(OC)c1OC` (stereo partly drawn) [compound 91], the pKi on FKBP12 was 7.62.
As to `COc1cc(C(=O)C(=O)N2CCCC[C@H]2C(=O)OC(CCCc2ccccc2)c2cccc(C(=O)c3cccnc3)c2)cc(OC)c1OC` (stereo partly drawn) [compound 92], at FKBP12, the pKi is 8.05.
For `COc1ccc(C(=O)C(=O)N2CCCC[C@H]2C(=O)OC(CCCc2ccccc2)c2cccc(OCc3ccncc3)c2)cc1OC` (stereo partly drawn) [compound 93], the pKi at FKBP12 is 8.12.
As to `COc1cc(C(=O)C(=O)N2CCCC[C@H]2C(=O)OC(CCCc2ccccc2)c2cccc(C(=O)c3ccncc3)c2)cc(OC)c1OCc1ccccc1` (stereo partly drawn) [compound 94], on FKBP12, the pKi is 7.60.
With `C=CCOc1c(OC)cc(C(=O)C(=O)N2CCCC[C@H]2C(=O)OC(CCCc2ccccc2)c2cccc(C(=O)c3ccncc3)c2)cc1OC` (stereo partly drawn) [compound 95], the pKi at FKBP12 was 8.44.
Turning to `COc1ccc(C(=O)C(=O)N2CCCC[C@H]2C(=O)OC(CCCc2ccccc2)c2cccc(C(=O)c3ccncc3)c2)cc1OCc1ccccc1` (stereo partly drawn) [compound 96], the pKi at FKBP12 was 7.60.
For the molecule `C=CCOc1cc(C(=O)C(=O)N2CCCC[C@H]2C(=O)OC(CCCc2ccccc2)c2cccc(C(=O)c3ccncc3)c2)ccc1OC` (stereo partly drawn) [compound 97], the pKi on FKBP12 was 7.77.
Still for that read-out and setting: under `COc1ccc(C(=O)C(=O)N2CCCC[C@H]2C(=O)OC(CCCc2ccccc2)c2cccc(C(=O)c3ccncc3)c2)cc1C/C=C/c1ccccc1` (stereo partly drawn) [compound 98] stands 6.42; under `COc1cc(C(=O)C(=O)N2CCCC[C@H]2C(=O)OC(CCCc2ccccc2)c2ccc(C(=O)c3ccncc3)cc2)cc(OC)c1OCc1ccccc1` (stereo partly drawn) [compound 99], 4.82.
The same measure, in the same setting: then `COc1ccc(C(=O)C(=O)N2CCCC[C@H]2C(=O)OC(CCCc2ccccc2)c2ccc(C(=O)c3ccncc3)cc2)cc1OCc1ccccc1` (stereo partly drawn) [compound 100], with < 5.30; and `COc1ccc(C(=O)C(=O)N2CCCC[C@H]2C(=O)OC(CCCc2ccccc2)c2ccccc2)cc1OCc1ccccc1` (stereo partly drawn) [compound 103], with 4.62; and `COc1cc(C(=O)C(=O)N2CCCC[C@H]2C(=O)OC(CCCc2ccccc2)c2ccccc2)cc(OC)c1OCc1ccccc1` (stereo partly drawn) [compound 104], with 5.77.
For `CC(C)(C)C(=O)C(=O)N1CCC[C@H]1C(=O)OC(CCCc1ccccc1)CCCc1cccnc1` (stereo partly drawn) [compound 105], the negative logarithm of the Ki (pKi) on FKBP12 was 6.47.
On to `COc1cc(C(=O)C(=O)N2CCCC[C@H]2C(=O)OC(CCCc2cccnc2)CCCc2cccnc2)cc(OC)c1OC` [compound 106], for which the pKi at FKBP12 is 8.43.
As to `COc1cc(C(=O)C(=O)N2CCC[C@H]2C(=O)OC(COCc2ccccc2)COCc2ccccc2)cc(OC)c1OC` [compound 107], at FKBP12, the pKi was 4.12.
With `COc1cc(C(=O)C(=O)N2CCC[C@H]2C(=O)OC(CCCc2cccnc2)CCCc2cccnc2)cc(OC)c1OC` [compound 108], the pKi at FKBP12 is 7.05.
For `CC(C)C(=O)C(=O)N1CCCC[C@H]1C(=O)OC(CCCc1cccnc1)CCCc1cccnc1` [compound 109], the pKi at FKBP12 was 5.82.
Consider `COc1cc(C(=O)C(=O)N2CCCC[C@H]2C(=O)OC(c2cc(OCc3ccncc3)c(OCc3ccncc3)c(OCc3ccncc3)c2)C(C)C)cc(OC)c1OC` (stereo partly drawn) [compound 115], for which, on FKBP12, the pKi was 9.41.
With `COc1cc(C(=O)C(=O)N2CCCC[C@H]2C(=O)OC(c2cc(OCc3ccncc3)c(OCc3ccncc3)c(OCc3ccncc3)c2)C(C)C)cc(OC)c1OC` (stereo partly drawn) [compound 116], the pKi on FKBP12 was 7.89.
As for `C=CCC(OC(=O)[C@@H]1CCCCN1C(=O)C(=O)c1cc(OC)c(OC)c(OC)c1)c1cc(OCc2ccncc2)c(OCc2ccncc2)c(OCc2ccncc2)c1` (stereo partly drawn) [compound 118], the pKi on FKBP12 was 7.92.
Consider `CO[C@H]1C[C@@H]2CC[C@@H](C)[C@@](O)(O2)C(=O)C(=O)N2CCCC[C@H]2C(=O)O[C@H]([C@H](C)C[C@@H]2CC[C@@H](O)[C@H](OC)C2)CC(=O)[C@H](C)/C=C(\C)[C@@H](O)[C@@H](OC)C(=O)[C@H](C)C[C@H](C)/C=C/C=C/C=C/1C` [rapamycin], for which, in assay [1] (with FK-506), the “effect on FK-506-induced neurite outgrowth” value is on record as “did not inhibit the effects of FK-506 on neurite outgrowth” and the “neurotrophic effect in combination with FK-506” value is on record as “additive effect with FK-506”. For the same molecule, the “effect on FK-506 neurotrophic effects in sensory ganglia” value in assay [2] (with FK-506) was “those effects were blocked by rapamycin”. Moreover, in the assay on ryanodine receptor (RyR), the “dissociating FKBP12 from the receptor” value was “capable of dissociating FKBP12 from the receptor”. Also, in assay [3], the “dissociating FKBP12 from the receptor” value is reported as “capable of dissociating FKBP12 from the receptor”.
